We go through 2 compounds from patent US20220213092A1, “BICYCLIC PYRAZOLE BRUTON'S TYROSINE KINASE INHIBITORS” (AbbVie Inc., priority 2020, published 2022).

Like-named read-outs stand apart in the source and are kept apart here.

This experiment addresses T1, TXK (Homo sapiens, UniProt P42681).
T1 sequence (P42681 1-527): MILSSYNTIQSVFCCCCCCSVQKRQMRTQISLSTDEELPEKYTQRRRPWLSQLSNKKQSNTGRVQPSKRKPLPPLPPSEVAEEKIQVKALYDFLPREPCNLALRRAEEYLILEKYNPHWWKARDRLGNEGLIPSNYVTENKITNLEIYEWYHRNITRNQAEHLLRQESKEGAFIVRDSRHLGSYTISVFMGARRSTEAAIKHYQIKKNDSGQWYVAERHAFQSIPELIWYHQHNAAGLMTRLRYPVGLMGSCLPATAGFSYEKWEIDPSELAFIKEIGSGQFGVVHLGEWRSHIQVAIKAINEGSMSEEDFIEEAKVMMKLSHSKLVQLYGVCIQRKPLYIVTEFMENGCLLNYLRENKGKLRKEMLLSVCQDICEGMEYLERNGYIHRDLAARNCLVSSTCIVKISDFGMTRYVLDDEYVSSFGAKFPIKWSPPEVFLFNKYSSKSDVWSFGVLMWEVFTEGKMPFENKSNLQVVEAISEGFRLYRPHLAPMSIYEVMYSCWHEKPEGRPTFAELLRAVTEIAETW
The experiment in a line: Other kinase MSA: TXK. It counts as biochemical. How it is done:
Kinase activity, unless otherwise indicated, was measured in vitro using an electrophoretic mobility shift assay (MSA). The phosphorylation of a peptide substrate by BTK and other kinases was measured. The kinase reactions were assembled in a total volume of 25 μL per well in 384 well plates. The following was added to each well: compound buffer (or control); enzyme buffer; and substrate buffer, as further described below. […]
Enzyme and compound/inhibitor were optionally pre-incubated. […] The kinase activity for the kinases in Table 3 were measured at 3 hours incubation time, except that in the case of MAP2K1 and MAP2K2 assay, pre-activation of ERK was done for 30 min with 6 μM of ATP, and then the detection of activated ERK in the presence of compounds was done after 60 minutes of incubation.
The terminated reactions were analyzed using a 12 channel LABCHIP® 3000 microfluidic detection instrument (available from Caliper Life Sciences, Waltham, Mass.). […] As substrate and product peptides were separated, two peaks of fluorescence were observed. Change in the relative fluorescence intensity of the substrate and product peaks was the parameter measured, reflecting enzyme activity. […] Capillary electrophoregrams (RDA acquisition files) were analyzed using HTS Well Analyzer software (available from Caliper Life Sciences, Waltham, Mass.). […]

Broadly, the IC50 is the concentration that inhibits the measured activity by half. Turning to `C=CC(=O)N1CCC([C@@H]2CCNc3c(C(N)=O)c(-c4ccc(Oc5ccccc5)cc4)nn32)CC1` [Compound A, reference compound], the IC50 (100 μM ATP, SRCtide substrate, 3 hours, read-out: IC50, Enzyme TXK) amounted to 1.9 nM.
With `C=CC(=O)N1CCN([C@@H]2CCNc3c2nn(-c2ccc(Oc4ccccc4)cc2)c3C(N)=O)CC1` [Example 6, (7R)-2-(4-phenoxyphenyl)-7-[4-(prop-2-enoyl)piperazin-1-yl]-4,5,6,7-tetrahydro-2H-pyrazolo[4,3-b]pyridine-3-carboxamide], the concentration for half-maximal inhibition (IC50) is 222 nM.
